Experimental data reported in BindingDB's records for doi:10.1016/j.bmc.2015.07.027 (Ocean University of China, 2015).

Experiment: Modulation of P-gp (unknown origin) transfected in human MDA435/LCC6MDR cells assessed as paclitaxel IC50 for cell growth inhibition at 1 uM after 5 days by MTS assay

| Structure (SMILES) | IC50 [nM] |
| --- | --- |
| COc1ccc(C2=C(c3ccc(OC)c(OC)c3)C(=O)N(C(=O)N3CCN(CC(=O)c4ccc(S(C)(=O)=O)cc4)CC3)C2=O)cc1OC | 136 |
| COc1ccc(C2=C(c3ccc(OC)c(OC)c3)C(=O)N(C(=O)N3CCN(CC(=O)c4ccc(OCc5ccccc5)c(OC)c4)CC3)C2=O)cc1OC | 26 |
| CCCCC1OC(=O)c2cc(NC(=O)N3C(=O)C(c4ccc(OC)c(OC)c4)=C(c4ccc(OC)c(OC)c4)C3=O)ccc21 (centres undefined) | 58 |
| COc1ccc(C2=C(c3ccc(OC)c(OC)c3)C(=O)N(C(=O)Nc3ccc4c(c3)C(=O)OC4)C2=O)cc1OC | 126 |
